The values below come from patent US8754233B2, “Pyrazolylbenzothiazole derivatives and their use as therapeutic agents” (Dermira (Canada), Inc., priority 2002, dated 2014).

Assay [1] relates to TNFa on macrophages. In words: Inhibition of TNFα release from stimulated macrophages. The format is cell-based, mouse. The settings on record: Mus musculus, Macrophage; LPS and IFN-γ stimulated primary macrophages, ELISA. As for the experimental part:
Peritoneal exudate macrophages were isolated by peritoneal lavage with ice-cold sterile physiological saline 24 hours after intraperitoneal injection of BALB/c mice with 0.5 mL of sterile Zymosan A (1 mg/0.5 mL 0.9% saline). […] Murine primary macrophage will get activated following incubation with LPS in the presence of sub-optimal doses of IFN-γ. […] TNF-αlevels in the supernatants from stimulated macrophages were determined with PharMingen's OptEIA TNF-α kit (PharMingen). The experiment was performed at room temperature, about 21° C., unless otherwise stated. The microwells (F8 MaxiSorp™ Loose/Nunc-Immuno Module; Gibco/BRL) were coated with 100 μl/well of capture antibody (at the recommended concentration) and incubated overnight at 4° C. […] Next, the solution was removed and the plates were washed 5× with wash buffer. The TNF-αanalysis was initiated by adding duplicate samples (100 μl/well) or standards (100 μl/well) in diluent buffer which were incubated for 2 h. The solution was removed and the plates washed 5× with wash buffer. Enzyme reagent (100 μl) containing biotinylated mouse TNF-αmonoclonal antibody and avidin-horseradish peroxidase conjugate (at concentrations recommended by the manufacturer) was added to each well. The plate was incubated for 1 hour, the solution removed, and the plates washed 7× with wash buffer. […] Colour development was terminated by adding 50 μl of 2N H2SO4. […] Peritoneal exudate macrophages were isolated by peritoneal lavage with ice-cold sterile physiological saline 24 hours after intraperitoneal injection of BALB/c mice with 0.3 ml of sterile zymosan A (1 mg/0.5 mL 0.9% saline). […] All treatments were replicated six times. Cells were incubated for an additional 24 hours, and cell free culture supernatants from each well were collected for NO and cytokine determination. The remaining cells were stained with crystal violet to determine effect of the compound on cell survival.
(In general: In an ELISA, binding on a coated surface is turned into a signal by an enzyme label.)

The subject of assay [2] is macrophages. As to the kind of experiment: Survival of macrophages. The assay is classed as cell-based, mouse. The settings on record: Mus musculus, Macrophage; stimulated primary macrophages. On the procedure: Peritoneal exudate macrophages were isolated by peritoneal lavage with ice-cold sterile physiological saline 24 hours after intraperitoneal injection of BALB/c mice with 0.3 ml of sterile zymosan A (1 mg/0.5 mL 0.9% saline). […] 1.5×10^5 cells/well were seeded in 96-well plates and followed by 3 hour incubation at 37° C. with 5% CO2 (macrophages were allowed to attach) cells were stimulated with LPS ([…]/mL) and IFN-γ (100 U/mL) in the absence or presence of the test compounds. All treatments were replicated six times. Cells were incubated for an additional 24 hours, and cell free culture supernatants from each well were collected for NO and cytokine determination. The remaining cells were stained with crystal violet to determine effect of the compound on cell survival.

For assay [3], the system named is MCP1 on HUVECS. As to the kind of experiment: Inhibition of MCP-1 release from TNFα-stimulated HUVEC. The assay is classed as cell-based, human. The settings on record: Homo sapiens, 18-24 hours, ELISA. The text has this: The activation of endothelial cells by pro-inflammatory cytokine TNF-α leads to the production of several chemokines. The release of these chemokines play an important role in leukocyte trafficking and extravasation of leukocytes into tissue during inflammation. MCP-1 and IL-8 are among the chemokines released upon stimulation of human endothelial cells (HUVECs) by TNFα, and contribute to migration of monocytes to the sites of inflammation. Cells should not be passaged more than 6 times.
Cells were maintained and grown in tissue culture flasks (T75) in endothelial cell growth medium (EGM, Clonetics) containing 5 additional supplements (EGM-5) in medium [human recombinant endothelial growth factor (hEGF), hydrocortisone (HC), bovine brain extract (BBE), fetal bovine serum (FBS) and Gentamycin (GA)] incubated at 37° C., 5% CO2. The cells should be propagated a maximum of 20 passages.
The plates were incubated overnight at 37° C., 5% CO2 to enable the cells to attach and grow.
The working concentration of TNFα was 1,000 pg/ml. A twenty times working concentration of TNFα was 20,000 pg/ml was prepared using EGM-5. The test compounds, DMSO negative vehicle control and staurosporine positive control were diluted 20× using EGM-5. Ten μL each of the compounds, DMSO and staurosporine were combined with 180 μl of medium containing HUVEC cells. Immediately following the addition of the compounds, 10 μl of […] TNFα was added to the wells. Medium without TNFα was added to the control wells. […] The plates were incubated at 37° C. in 5% CO2 in humidified conditions overnight (18-24 hours) for TNFα.
At the completion of the stimulation, the plates were spun at 2000 rpm for 10 minutes. The supernatants from each well were transferred to fresh plates for MCP1 analysis by ELISA.
[…] were determined with PharMingen's OptEIA™ MCP1 Kit (PharMingen) according to manufacturer's instructions.
The data is represented as a percentage of MCP1 inhibition by the following formula: % MCP1 inhibition=100−(AVG treatment/AVG DMSO control)*100.

The subject of assay [4] is IFNg on ConA 1° splenocytes. As to the kind of experiment: Inhibition of IFNγ release from ConA-stimulated splenocytes. The assay is classed as cell-based, mouse. The settings on record: ConA-stimulated Balb/c splenocytes, 18-24 hours, ELISA. On the procedure: T-lymphocytes obtained from mice spleens are a suitable sample for studying the activation properties of this immunologically important cell type. T-lymphocytes are the main regulators for inflammation. Concanavalin A (ConA) is an effective activator of T-lymphocytes, which allows T-lymphocytes to proliferate and produce inflammatory cytokines, such as Interferon (IFNγ) and regulatory cytokines, such as Interleukin 10 (IL-10).
The spleens were transferred onto mesh screen containing 10 ml of ice cold RPMI-5 (1× sodium pyruvate and 5% FBS) and gently ground with a pestle. The cell suspensions were centrifuged at 1500 rpm for 6 minutes at 4° C. […] The supernatant was discarded and the pellet washed two additional times. The cells were resuspended in RPMI-5 and the cell suspensions combined. The cells were counted and their concentration was adjusted to 2.8×10^6 cells/ml using RPMI-5.
(§1) The working concentration of ConA was […]. A 20× working concentration of Concanavalin A was […] was prepared using RPMI-5. The test compounds, dimethylsulfoxide (DMSO) negative vehicle control and staurosporine positive control were diluted twenty times using RPMI-5. Ten μL each of DMSO and staurosporine were combined with 180 μl of medium containing splenocytes in the wells, and 10 μl of 50 μg/ml ConA was immediately added. Medium without ConA was added to the control wells. […] The plates were incubated at 37° C. in 5% CO2 in humidified conditions overnight (18-24 hours) for INFγ.
At the completion of the stimulation described above, the plates were spun at 2000 rpm for 10 minutes. The supernatants (100 μl) from each well were transferred to fresh plates for INFγ analysis by ELISA.
INFγ levels in the supernatants from stimulated lymphocytes were determined with PharMingen's OptEIA™ INFγ Kit (PharMingen) according to manufacturer's directions. The data, shown in Table 2 infra, is represented as a percentage of INFγ inhibition by the following formula: INFγ inhibition=100−(AVG treatment/AVG DMSO control)*100.

Assay [5] deals with ConA 1° splenocytes. As to the kind of experiment: Survival of ConA 1° splenocytes (cytotoxicity by MTS staining). The assay is classed as cell-based, mouse. The settings on record: ConA-stimulated splenocytes. On the procedure: as §1
(MTS). The MTS solution was made fresh and under low light. The electron coupling reagent phenazine methosulfate (PMS) was added at the time of the assay. Twenty μL of MTS solution per 100 μl of tissue culture medium was added to each well. The plates were incubated 37° C. for 4 hours for unstimulated and 18-24 ConA stimulated splenocytes. The absorbance was read at 490 nm wavelength. A kit available to do this assay is “CellTiter 96® AQ Kit AQueous Kit (G5421)” by Promega.

The test system of assay [6] is K5P5 podocyte cell line. As to the kind of experiment: Survival assay in podocytes (PAN treatment, MTS). The assay is classed as cell-based, murine. The settings on record: Mus musculus; PAN treated, MTS. The source says: The treatment of glomerular visceral epithelial cells (podocytes) with high concentrations of puromycin aminonucleoside (PAN) causes significant cytotoxic effects. An assessment of cell viability subsequent to a cytotoxic exposure can be judged qualitatively by examining changes in cell phenotype after staining with crystal violet or determined quantitatively by employing a cytotoxic assay using the soluble tetrazolium salt [3-(4,5-dimethylthiazol-2-yl)-5-(3-carboxymethoxyphenyl)-2-(4-sulfophenyl)-2H-tetrazolium, inner salt] (MTS). Such a system can be used to evaluate the survival effects that ILK compounds have on podocytes following exposure to PAN or other cytotoxic agents.
The cell line employed for the podocyte model was the murine K5P5. […] The cells should be propagate to a maximum of 20 passages.
The flasks were incubated at 37° C., 5% CO2 for 3 days.
The flasks were incubated at 37° C., 5% CO2 for 4 days.
Cells were trypsinized (0.25%), collected from the tissue culture flasks centrifuged, resuspended and counted. […] The flasks were incubated at 37° C., 5% CO2 for 3 days.
10 μl of this 10× compound solution is added to the 80 μl of cells already present in the 96-well plates. For cell undergoing cytotoxic treatment, puromycin aminonuceloside (PAN, Sigma P7130) was added at a 10× concentration to 90 μl of cells. The positive control is PAN treatment without compound. The negative control is 100% DMSO diluted to the same factor as the compounds without PAN.
The plates are incubated at 37° C., 5% CO2 for 48 to 72 hours depending on the PAN concentration (i.e. lower concentrations of PAN required a longer incubation period). The medium is aspirated after plates are spun at 2400 rpm for 10 min at ambient temperature. 100 μl of 1×DPBS (without CaCl2, without MgCl2) is added to each well.
The MTS (Promega) is prepared under low lighting conditions by dissolving 4.0 g of MTS in 1.8 I of 1×DPBS. The solution is allowed to sit for 10 minutes and pH adjusted to 6.2. […] Absorbance is measured at 490 nm wavelength with a microplate reader.

Molecules are shown by their SMILES.

Take `Cc1n[nH]cc1-c1nc2ccccc2s1` [2-(3-Methyl-1H-pyrazol-4-yl)-benzothiazole]: the IC50 in assay [1], in assay [2] and in assay [3] was greater than 25 µM throughout.
`Cc1cc2sc(-c3cn[nH]c3N)nc2cc1F` [4-(5-Fluoro-6-methylbenzothiazol-2-yl)-2H-pyrazol-3-ylamine]: the IC50 (as a rule, the point on the concentration scale where inhibition reaches its midpoint) in assay [4] (Mus musculus, Splenocyte) is greater than 25 µM; in assay [5] (Mus musculus, Splenocyte) it was greater than 25 µM.
As to `COc1cc2sc(-c3c(-c4ccncc4)n[nH]c3N)nc2cc1F` [4-(5-Fluoro-6-methoxybenzothiazol-2-yl)-5-pyridin-4-yl-2H-pyrazol-3-ylamine], the IC50 in assay [5] (Mus musculus, Splenocyte) is greater than 25 µM; in assay [1], greater than 25 µM; in assay [2], greater than 25 µM; in assay [3] it was greater than 25 µM.
In assay [4] (Mus musculus, Splenocyte), `CNS(=O)(=O)c1cc2sc(-c3c(N)n[nH]c3C)nc2cc1F` [2-(3-Amino-5-methyl-1H-pyrazol-4-yl)-5-fluorobenzothiazole-6-sulfonic acid methylamide] displayed an IC50 of 0.368 µM. This lies in the sub-micromolar range.
As to `CNS(=O)(=O)c1ccc2nc(-c3c(N)n[nH]c3C)sc2c1` [2-(3-Amino-5-methyl-1H-pyrazol-4-yl)benzothiazole-6-sulfonic acid methylamide], the midpoint of inhibition in assay [6], the IC50, lay at 12.5 µM.
On to `Cc1n[nH]c(N)c1-c1nc2ccc(Cl)cc2s1` [4-(6-Chlorobenzothiazol-2-yl)-5-methyl-2H-pyrazol-3-ylamine], for which the IC50 in assay [5] (Mus musculus, Splenocyte) was greater than 25 µM; in assay [1] it was greater than 25 µM.
With `Nc1n[nH]cc1-c1nc2ccc(F)cc2s1` [4-(6-Fluorobenzothiazol-2-yl)-1H-pyrazol-3-ylamine], the IC50 in assay [1] was greater than 25 µM; in assay [2], greater than 25 µM; in assay [3], roughly 25 µM.
Take `COc1cc2sc(-c3c(-c4ccco4)n[nH]c3N)nc2cc1F` [4-(5-Fluoro-6-methoxybenzothiazol-2-yl)-5-furan-2-yl-2H-pyrazol-3-ylamine]: the IC50 in assay [6] was 2.5 µM.
Take `Nc1n[nH]c(CCCO)c1-c1nc2ccccc2s1` [3-(5-Amino-4-benzothiazol-2-yl-2H-pyrazol-3-yl)-propan-1-ol]: the 50% inhibitory concentration (IC50) in assay [1] is greater than 25 µM; in assay [3], roughly 25 µM.
Regarding `COc1cc2sc(-c3c(NCCCN(C)C)n[nH]c3N)nc2cc1F` [N^3-(3-Dimethylaminopropyl)-4-(5-fluoro-6-methoxybenzothiazole)-1H-pyrazole-3,5-diamine], the concentration for half-maximal inhibition (IC50) is 10.2 µM in assay [4] and roughly 25 µM in assay [5].
Take `Nc1[nH]nc(N2CCNCC2)c1-c1nc2ccccc2s1` [4-Benzothiazol-2-yl-5-piperazin-1-yl-2H-pyrazol-3-ylamine]: the IC50 in assay [1] and in assay [2] was greater than 25 µM in each case.
As to `CNCc1ccc2nc(-c3c(C)n[nH]c3N)sc2c1` [5-Methyl-4-(6-methylaminomethylbenzothiazol-2-yl)-2H-pyrazol-3-ylamine], the concentration for half-maximal inhibition (IC50) in assay [4] (Mus musculus, Splenocyte) amounted to 0.5 µM; in assay [5] (Mus musculus, Splenocyte) it was 0.9 µM.
As for `COc1ccc2nc(-c3c(N4CCNCC4)n[nH]c3N)sc2c1` [4-(6-Methoxybenzothiazole)-5-piperizin-1-yl-2H-pyrazol-3-ylamine], the figures for the IC50 in assay [4] and in assay [5] were 5.9 µM and 20.5 µM, respectively.
Regarding `Cc1n[nH]c(N)c1-c1nc2ccc(CN(C)C)cc2s1` [4-(6-Dimethylaminomethylbenzothiazol-2-yl)-5-methyl-2H-pyrazol-3-ylamine], in assay [6], it took 12.5 µM to reach half-maximal inhibition (IC50). That is a double-digit micromolar value.
